Key:
[1] = Inhibition of IL-6/JAK/STAT3 signalling pathway in HEK-Blue IL-6 cells incubated for 16 hrs by QUANTI-blue assay; assay type: cell-based; conditions: Homo sapiens, HEK-Blue IL-6, 16 h
[2] = tested on: HEK-Blue IL-6; test: Inhibition of IL-6/JAK/STAT3 signalling pathway in HEK-Blue IL-6 cells at 10 uM incubated for 16 hrs by QUANTI-blue assay relative to control; assay type: cell-based; conditions: Homo sapiens
[3] = tested on: MDA-MB-231; test: Antiproliferative activity against human MDA-MB-231 cells assessed as inhibition of cell growth at 10 uM measured after 96 hrs by MTT assay relative to control; assay type: functional
[4] = tested on: DU-145; test: Antiproliferative activity against human DU-145 cells assessed as inhibition of cell growth at 10 uM measured after 96 hrs by MTT assay relative to control; assay type: functional
[5] = tested on: DU-145; test: Antiproliferative activity against human DU-145 cells assessed as inhibition of cell growth measured after 96 hrs by MTT assay; assay type: functional, cell-based; conditions: DU-145, 96 h
[6] = tested on: MDA-MB-231; test: Antiproliferative activity against human MDA-MB-231 cells assessed as inhibition of cell growth measured after 96 hrs by MTT assay; assay type: functional, cell-based; conditions: MDA-MB-231, 96 h

Row | SMILES | IC50 [1] [µM] | inhibition [2] [%] | inhibition at 10 µM [3] [%] | inhibition at 10 µM [4] [%] | IC50 [5] [µM] | IC50 [6] [µM]
1 | Fc1cc2c(cc1Nc1nnc(-c3cccc(C(F)(F)F)c3)s1)nc(-c1ccccc1)n2C1CC1 | > 10 | 25.6 | – | – | – | –
2 | CCOc1cc2c(cc1Nc1nnc(-c3cccc(C#N)c3)s1)nc(-c1ccc(F)cc1)n2C1CC1 | 0.52 | 92.5 | -5.91 | 14 | > 10 | > 10
3 | CCCn1c(-c2ccc(F)cc2)nc2cc(Nc3nnc(-c4cccc(F)c4)s3)c(N3CCN(C)CC3)cc21 | 1.96 | 85.3 | 94.7 | 78.9 | 4.34 | 3.33
4 | Fc1cc2c(cc1Nc1nnc(-c3ccccc3F)s1)nc(-c1ccccc1F)n2C1CC1 | 3.92 | 63.6 | – | – | – | –
5 | Fc1ccc(-c2nc3cc(Nc4nnc(-c5ccc(C(F)(F)F)cc5)s4)ccc3n2C2CC2)cc1 | > 10 | 8.71 | – | – | – | –
6 | Fc1ccc(-c2nc3cc(Nc4nnc(-c5ccccc5)s4)c(N4CCN(c5ccccc5)CC4)cc3n2C2CC2)cc1 | > 10 | 21.3 | – | – | – | –
7 | CCCn1c(-c2ccc(F)cc2)nc2cc(Nc3nnc(-c4ccccc4)s3)c(N3CCN(C)CC3)cc21 | 1.32 | 105 | 93.4 | 80.7 | 4.68 | 3.34
8 | CCCn1c(-c2ccc(F)cc2)nc2cc(Nc3nnc(-c4cccc(C(F)(F)F)c4)s3)c(N3CCN(C)CC3)cc21 | > 10 | 5.21 | 90.1 | 55.6 | 9.73 | 6.63
9 | Fc1ccc(-c2nc3cc(Nc4nnc(-c5ccccc5C(F)(F)F)s4)c(F)cc3n2C2CC2)cc1 | 0.6 | 99.9 | 3.62 | 14.7 | > 10 | > 10
10 | CN(C)C1CCN(c2cc3c(cc2Nc2nnc(-c4ccccc4)s2)nc(-c2ccc(F)cc2)n3C2CC2)CC1 | 3.29 | 69.2 | 19.5 | -2.92 | > 10 | > 10
11 | CC(C)N1CCN(c2cc3c(cc2Nc2nnc(-c4ccccc4)s2)nc(-c2ccc(F)cc2)n3C2CC2)CC1 | 2.42 | 77.1 | 90.1 | 79.9 | 4.04 | 3.21
12 | CN(C)CCn1c(-c2ccc(F)cc2)nc2cc(Nc3nnc(-c4ccccc4)s3)c(N3CCN(C)CC3)cc21 | > 10 | 2.11 | – | – | – | –
13 | Fc1ccc(-c2nc3cc(Nc4nnc(-c5ccc(C(F)(F)F)cc5)s4)c(N4CCOCC4)cc3n2C2CC2)cc1 | > 10 | 0.29 | – | – | – | –
14 | CN1CCN(c2cc3c(cc2Nc2nnc(-c4cccc(F)c4)s2)nc(-c2ccc(F)cc2)n3C2CC2)CC1 | 3.52 | 82.1 | 91.9 | 56.4 | 9.37 | 6.47
15 | CN1CCN(c2cc3c(cc2Nc2nnc(-c4ccccc4)s2)nc(-c2ccccc2F)n3C2CC2)CC1 | 7.56 | 63.3 | – | – | – | –
16 | CN1CCN(c2cc3c(cc2Nc2nnc(-c4ccccc4)s2)nc(-c2ccc(F)cc2)n3C2CCC2)CC1 | 6.27 | 64.7 | – | – | – | –
17 | O=[N+]([O-])c1ccc2c(c1)S(=O)(=O)C=C2 | 2.21 | 107 | 92.2 | 79.6 | 1.84 | 1.66
18 | CC(C)(C)c1ccc(-c2nnc(Nc3cc4nc(-c5ccc(F)cc5)n(C5CC5)c4cc3F)s2)cc1 | > 10 | 36.1 | – | – | – | –
19 | CN1CCN(c2cc3c(cc2Nc2nnc(-c4ccccc4)s2)nc(-c2ccc(F)cc2)n3C2CCCC2)CC1 | 5.28 | 77.5 | -5.02 | -26.6 | > 10 | > 10
20 | Fc1ccc(Oc2cc3c(cc2Nc2nnc(-c4cccc(C(F)(F)F)c4)s2)nc(-c2ccc(F)cc2)n3C2CC2)cc1 | > 10 | 6.34 | – | – | – | –
21 | CCCn1c(-c2ccc(F)cc2)nc2cc(Nc3nnc(-c4ccc(C(F)(F)F)cc4)s3)c(N3CCN(C)CC3)cc21 | 3.28 | 90.9 | 93.8 | 64.6 | 6.73 | 3.83
22 | CC(C)n1c(-c2ccc(F)cc2)nc2cc(Nc3nnc(-c4ccccc4)s3)c(N3CCN(C)CC3)cc21 | 3.12 | 71.4 | 0.1 | -4.96 | > 10 | > 10
23 | CN1CCN(c2cc3c(cc2Nc2nnc(-c4ccccc4)s2)nc(-c2ccc(Cl)cc2)n3C2CC2)CC1 | 2.96 | 75.8 | 6.84 | -4.82 | > 10 | > 10

Row | SMILES | IC50 [1] [µM] | inhibition [2] [%] | inhibition at 10 µM [3] [%] | inhibition at 10 µM [4] [%] | IC50 [5] [µM] | IC50 [6] [µM]
24 | CN1CCN(c2cc3c(cc2Nc2nnc(-c4ccccc4)s2)nc(-c2ccccc2)n3C2CC2)CC1 | 1.99 | 78.1 | 83.3 | 47 | 9.17 | 5.92
25 | CC(C)Cn1c(-c2ccc(F)cc2)nc2cc(Nc3nnc(-c4ccccc4)s3)c(N3CCN(C)CC3)cc21 | 3.92 | 77.4 | 62.2 | 26.7 | > 10 | 8.55
26 | CCCCCn1c(-c2ccc(F)cc2)nc2cc(Nc3nnc(-c4ccccc4)s3)c(N3CCN(C)CC3)cc21 | 3.96 | 83.2 | -7.99 | -8.3 | > 10 | > 80
27 | Fc1cccc(-c2nc3cc(Nc4nnc(-c5cccc(C(F)(F)F)c5)s4)c(F)cc3n2C2CC2)c1 | 0.41 | 90 | 5.54 | -7.06 | > 10 | > 10
28 | CCCn1c(-c2cccc(F)c2)nc2cc(Nc3nnc(-c4cccc(C(F)(F)F)c4)s3)c(F)cc21 | > 10 | 20.2 | – | – | – | –
29 | Fc1ccc(-c2nc3cc(Nc4nnc(-c5ccc(Cl)c(C(F)(F)F)c5)s4)c(F)cc3n2C2CC2)cc1 | > 10 | 34.2 | – | – | – | –
30 | CN1CCN(c2cc3c(cc2Nc2nnc(-c4ccccc4)s2)nc(-c2cccc(F)c2)n3C2CC2)CC1 | 4.51 | 56.6 | – | – | – | –
31 | CN1CCN(c2cc3c(cc2Nc2nnc(-c4cccnc4)s2)nc(-c2ccc(F)cc2)n3C2CC2)CC1 | > 10 | -0.36 | – | – | – | –
32 | CN1CCN(c2cc3c(cc2Nc2nnc(-c4ccccc4)s2)nc(-c2cccnc2)n3C2CC2)CC1 | > 10 | 25.5 | – | – | – | –
33 | CCCn1c(-c2cccc(F)c2)nc2cc(Nc3nnc(-c4ccccc4C(F)(F)F)s3)c(F)cc21 | > 10 | 46.2 | – | – | – | –
34 | COCCn1c(-c2ccc(F)cc2)nc2cc(Nc3nnc(-c4ccccc4)s3)c(N3CCN(C)CC3)cc21 | 6.42 | 65.4 | – | – | – | –
35 | CN1CCN(c2cc3c(cc2Nc2nnc(-c4cccc(C(F)(F)F)c4)s2)nc(-c2ccc(F)cc2)n3C2CC2)CC1 | 2.23 | 100 | 94.1 | 64.6 | 5.66 | 3.98
36 | CC(C)c1ccc(-c2nnc(Nc3cc4nc(-c5ccc(F)cc5)n(C5CC5)c4cc3F)s2)cc1 | 7.88 | 61.9 | 1.85 | 17.9 | > 10 | > 10
37 | Fc1ccc(-c2nc3cc(Nc4nnc(-c5cccc(C(F)(F)F)c5)s4)ccc3n2C2CC2)cc1 | > 10 | 34.5 | – | – | – | –
38 | Fc1cc2c(cc1Nc1nnc(-c3cccc(C(F)(F)F)c3)s1)nc(-c1ccc(C(F)(F)F)cc1)n2C1CC1 | > 10 | 29.6 | – | – | – | –
39 | Fc1ccc(-c2nc3cc(Nc4nnc(-c5ccccc5)s4)ccc3n2C2CC2)cc1 | 5.79 | 66.1 | – | – | – | –
40 | Fc1ccc(-c2nc3cc(Nc4nnc(-c5cccc(Cl)c5)s4)c(F)cc3n2C2CC2)cc1 | 3.37 | 67.8 | -2.05 | -7.76 | > 10 | > 10
41 | Fc1ccc(-c2nc3cc(Nc4nnc(-c5cccc(C(F)(F)F)c5)s4)c(F)cc3n2C2CC2)cc1 | – | – | 8.11 | -3.68 | > 10 | > 10
42 | CN1CCN(c2cc3c(cc2Nc2nnc(-c4cccc(C#N)c4)s2)nc(-c2ccc(F)cc2)n3C2CC2)CC1 | 4.01 | 83.7 | 92.7 | 85.9 | 2.17 | 0.96
43 | CCCCn1c(-c2ccc(F)cc2)nc2cc(Nc3nnc(-c4ccccc4)s3)c(N3CCN(C)CC3)cc21 | 3.51 | 80.7 | -14.4 | -9.69 | > 10 | > 10
44 | CCCn1c(-c2cccc(F)c2)nc2cc(Nc3nnc(-c4ccc(C(F)(F)F)cc4)s3)c(F)cc21 | > 10 | 54.6 | – | – | – | –
45 | COc1cc(-c2nnc(Nc3cc4nc(-c5ccc(F)cc5)n(C5CC5)c4cc3F)s2)cc(OC)c1OC | 1.09 | 83.5 | -11.5 | -10.3 | > 10 | > 10
46 | Fc1ccc(-c2nc3cc(Nc4nnc(-c5ccc(C(F)(F)F)cc5)s4)c(F)cc3n2C2CC2)cc1 | 4.84 | 64.1 | -2.76 | -25 | > 10 | > 10
